These results are taken from ChEMBL document CHEMBL3714716, “Modulators of the relaxin receptor 1” (2015).

Experiment [1] addresses T1, Relaxin receptor 1 (Homo sapiens) (UniProt Q9HBX9).
T1 sequence (whole entry): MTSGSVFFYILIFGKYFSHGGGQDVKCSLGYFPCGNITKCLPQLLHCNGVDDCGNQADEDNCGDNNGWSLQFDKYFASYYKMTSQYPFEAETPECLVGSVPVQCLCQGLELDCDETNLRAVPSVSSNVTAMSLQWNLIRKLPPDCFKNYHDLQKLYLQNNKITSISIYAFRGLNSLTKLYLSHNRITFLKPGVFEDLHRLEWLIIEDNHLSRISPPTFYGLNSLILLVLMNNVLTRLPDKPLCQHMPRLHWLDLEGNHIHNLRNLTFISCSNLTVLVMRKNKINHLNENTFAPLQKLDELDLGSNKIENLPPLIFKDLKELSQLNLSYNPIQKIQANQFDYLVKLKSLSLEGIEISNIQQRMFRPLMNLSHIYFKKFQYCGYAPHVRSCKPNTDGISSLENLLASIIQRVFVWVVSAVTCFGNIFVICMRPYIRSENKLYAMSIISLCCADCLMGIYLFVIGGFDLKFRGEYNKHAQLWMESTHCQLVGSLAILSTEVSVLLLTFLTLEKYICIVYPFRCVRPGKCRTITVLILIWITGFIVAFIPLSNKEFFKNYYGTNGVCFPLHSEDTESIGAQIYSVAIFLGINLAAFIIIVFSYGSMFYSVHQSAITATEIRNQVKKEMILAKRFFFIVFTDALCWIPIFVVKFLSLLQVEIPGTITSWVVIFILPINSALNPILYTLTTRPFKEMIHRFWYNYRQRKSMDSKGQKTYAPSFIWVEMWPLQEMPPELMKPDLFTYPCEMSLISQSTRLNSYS
As to the kind of experiment: Agonist activity at RXFP1 receptor (unknown origin) expressed in HEK293 cells assessed as stimulation of cAMP production incubated for 30 mins by TR-FRET based HTRF assay relative to forskolin. In kind it is functional, cell-based.

In a further experiment the target is T2, Relaxin receptor 1 (Homo sapiens, UniProt Q9HBX9).
T2 sequence (Q9HBX9 whole entry): T1 sequence (whole entry)
As to the kind of experiment: Agonist activity at RXFP1 receptor (unknown origin) expressed in HEK293 cells assessed as stimulation of cAMP production incubated for 30 mins by TR-FRET based HTRF assay. In kind it is functional, cell-based. For orientation: Cyclic AMP is a second messenger, typically raised through Gs and lowered through Gi signalling.

Activity calls are given as the source filed them. The calls are words filed in the database; no cut-off is given here.

`Cc1ccc(NC(=O)c2ccccc2NC(=O)C2CCCCC2)cc1`: the %max in experiment [1] was determined as 32%. The half-maximal activity concentration (AC50) on Relaxin receptor 1 (read-out: AC50) was found to be 187 µM. On the same counts, the results for `CCOc1ccccc1C(=O)Nc1cccnc1C(=O)Nc1cccc(S(=O)(=O)C(F)(F)F)c1` are 73% and 4.71 µM.

For `O=C(Nc1ccc(C(F)(F)F)cc1)c1ccccc1NC(=O)C1CCCCC1`, the %max in experiment [1] turned out to be 46%. Besides, at Relaxin receptor 1 (read-out: AC50), the AC50 is 94 µM. On to `CC1CCC(C(=O)Nc2ccccc2C(=O)Nc2cccc(C(F)(F)F)c2)CC1` (configuration not stated), for which the %max in experiment [1] was 92%. For the same compound, the AC50 on Relaxin receptor 1 (read-out: AC50) came out at 2.36 µM. For `CCCCC(=O)Nc1ccccc1C(=O)Nc1cccc(C(F)(F)F)c1` the same measures were 94% and 5.29 µM.

Turning to `O=C(NCc1cccc(C(F)(F)F)c1)c1ccccc1NC(=O)C1CCCCC1`, the “%max” value in experiment [1] was “inactive”. `CCOc1ccccc1C(=O)Nc1ccccc1C(=O)Nc1cccc(C#N)c1`: the %max in experiment [1] came to 96%. The AC50 at Relaxin receptor 1 (read-out: AC50) was 0.666 µM. As to `COc1ccccc1C(=O)Nc1ccccc1C(=O)N(C)c1cccc(C(F)(F)F)c1`, the %max in experiment [1] turned out to be 77%. The AC50 at Relaxin receptor 1 (read-out: AC50) was found to be 29.7 µM. On the same counts, the results for `O=C(Nc1cccc([N+](=O)[O-])c1)c1ccccc1NC(=O)C1CCCCC1` are 93% and 5.93 µM. On the same counts, the results for `O=C(Nc1ccccc1C(=O)Nc1cccc(C(F)(F)F)c1)c1ccccc1Cl` are 92% and 3.74 µM. Turning to `O=C(Nc1ccccc1C(=O)Nc1cccc(C(F)(F)F)c1)c1ccccc1Br`, the %max in experiment [1] is 78%. The AC50 at Relaxin receptor 1 (read-out: AC50) stood at 7.47 µM. As to `O=C(Nc1ccccc1F)c1ccccc1NC(=O)C1CCCCC1`, the “%max” value in experiment [1] is “inactive”. Further, the AC50 result on Relaxin receptor 1 (hek293) is listed as “Not Active”. For `CCC(CC)C(=O)Nc1ccccc1C(=O)Nc1cccc(C(F)(F)F)c1`, the %max in experiment [1] was 59%. The half-maximal activity concentration (AC50) at Relaxin receptor 1 (read-out: AC50) is 5.29 µM. On the same counts, the results for `CCOc1ccccc1C(=O)Nc1ccccc1C(=O)Nc1cccc(I)c1` are 96% and 0.747 µM. Regarding `O=C(Nc1cccc(C(F)(F)F)c1)c1cccc(NC(=O)C2CCCCC2)c1`, the “%max” value in experiment [1] was “inactive”. In addition, the AC50 result on Relaxin receptor 1 (hek293) is reported as “Not Active”. For the compound `O=C(Nc1cccc(F)c1)c1ccccc1NC(=O)C1CCCCC1`, the %max in experiment [1] worked out at 81%. The AC50 on Relaxin receptor 1 (read-out: AC50) was found to be 13.3 µM. On the same counts, the results for `O=C(Nc1cccc(C(F)(F)F)c1)c1ccccc1NC(=O)c1ccccc1[N+](=O)[O-]` are 30% and 188 µM. Take `O=C(Nc1cccc(C(F)(F)F)c1)c1ccccc1-c1ccccc1OCc1ccccc1`: the “%max” value in experiment [1] is “inactive”. In addition, the AC50 entry on Relaxin receptor 1 (hek293) was “Not Active”. With `CCOc1ccccc1C(=O)Nc1ccncc1C(=O)Nc1cccc(S(=O)(=O)C(F)(F)F)c1`, the %max in experiment [1] was 97%. In addition, on Relaxin receptor 1 (read-out: AC50), the AC50 turned out to be 0.747 µM. On the same counts, the results for `CCOc1ccccc1C(=O)Nc1ccccc1C(=O)Nc1ccccn1` are 74% and 29.7 µM. On the same counts, the results for `COc1ccccc1CNc1ccccc1C(=O)Nc1cccc(C(F)(F)F)c1` are 57% and 59.3 µM.

For the compound `COc1ccccc1C(=O)Nc1ccccc1C(=O)Nc1cccc(C(F)(F)F)c1`, the %max in experiment [1] amounted to 99%. The AC50 on Relaxin receptor 1 (read-out: AC50) amounted to 0.334 µM. Regarding `CCOc1ccccc1-c1nc2ccccc2c(=O)n1-c1cccc(-c2nnn[nH]2)c1`, in experiment [1], the %max stood at 36%. Further, the AC50 on Relaxin receptor 1 (read-out: AC50) is 149 µM.

Consider `O=C(Nc1cccc(C(F)(F)F)c1)c1ccccc1Nc1cccc(C(F)(F)F)c1`, for which, in experiment [1], the %max amounted to 93%. In addition, the AC50 on Relaxin receptor 1 (read-out: AC50) stood at 4.2 µM. As to `CC(=O)Nc1ccccc1C(=O)Nc1cccc(C(F)(F)F)c1`, in experiment [1], the %max came to 51%. Besides, the AC50 on Relaxin receptor 1 (read-out: AC50) amounted to 74.7 µM. As to `CS(=O)(=O)c1cccc(C(=O)Nc2ccccc2C(=O)Nc2cccc(C(F)(F)F)c2)c1`, in experiment [1], the %max was determined as 77%. Moreover, the AC50 on Relaxin receptor 1 (read-out: AC50) was 9.4 µM. On the same counts, the results for `O=C(Nc1ccccc1C(=O)Nc1cccc(C(F)(F)F)c1)c1ccc(Br)cc1` are 93% and 4.2 µM.

Consider `CCOc1ccccc1C(=O)Nc1ccccc1-c1nc2cc(C(F)(F)F)ccc2[nH]1`, for which, in experiment [1], the %max came out at 31%. Also, at Relaxin receptor 1 (read-out: AC50), the AC50 was 149 µM.

For the compound `CSc1cccc(NC(=O)c2ccccc2NC(=O)C2CCCCC2)c1`, in experiment [1], the %max was 84%. Besides, the AC50 at Relaxin receptor 1 (read-out: AC50) was found to be 5.29 µM. On the same counts, the results for `O=C(Nc1cccc(C(F)(F)F)c1)c1ccccc1NC(=O)C1CCC1` are 75% and 2.97 µM. In the case of `O=C(Nc1ccccc1Br)c1ccccc1NC(=O)C1CCCCC1`, in experiment [1], the “%max” value is “inactive”. The AC50 entry on Relaxin receptor 1 (hek293) is on record as “Not Active”. On to `Cc1ccccc1NC(=O)c1ccccc1NC(=O)C1CCCCC1`, for which the “%max” value in experiment [1] is “inactive”. `O=C(Nc1cccc(C(F)(F)F)c1)c1ccccc1NCC1CCCCC1`: in experiment [1], the %max turned out to be 77%. Besides, the AC50 on Relaxin receptor 1 (read-out: AC50) turned out to be 5.93 µM.

With `COc1ccccc1-c1ccccc1C(=O)Nc1cccc(C(F)(F)F)c1`, the “%max” value in experiment [1] is “inactive”. Moreover, the concentration at half-maximal activity (AC50) result at Relaxin receptor 1 (hek293) is “Not Active”. On the same counts, the results for `O=C(Nc1ccccc1[N+](=O)[O-])c1ccccc1NC(=O)C1CCCCC1` are “inactive” and “Not Active”. On the same counts, the results for `O=C(Nc1cccc(C(F)(F)F)c1)c1ccccc1-c1ccccc1` are “inactive” and “Not Active”. `O=C(Nc1ccc2c(c1)OCO2)c1ccccc1NC(=O)C1CCCCC1`: in experiment [1], the %max was 58%. Besides, on Relaxin receptor 1 (read-out: AC50), the AC50 is 74.7 µM. For `COc1cccc(OC)c1C(=O)Nc1ccccc1C(=O)Nc1cccc(C(F)(F)F)c1`, the %max in experiment [1] worked out at 42%. Besides, the AC50 on Relaxin receptor 1 (read-out: AC50) came out at 7.47 µM. On the same counts, the results for `O=C(Nc1cccc(C(F)(F)F)c1)c1ccccc1NC(=O)C1CCCC1` are 88% and 2.36 µM. For the compound `CCOc1ccccc1-c1nc2ccccc2c2nc3ccc(C(F)(F)F)cc3n12`, the AC50 on Relaxin receptor 1 (read-out: AC50) was found to be 188 µM. `CNCCOc1ccccc1C(=O)Nc1ccccc1C(=O)Nc1cccc(C(F)(F)F)c1`: in experiment [1], the %max came out at 92%. Besides, the AC50 at Relaxin receptor 1 (read-out: AC50) worked out at 3.74 µM. As for `O=C(Nc1cccc(-c2ccccc2)c1)c1ccccc1NC(=O)C1CCCCC1`, in experiment [1], the “%max” value was “inactive”. With `CCOc1ccccc1C(=O)Nc1cccc2c1C(=O)N(c1cccc(S(=O)(=O)C(F)(F)F)c1)C2`, the “%max” value in experiment [1] was “inactive”. On Relaxin receptor 1 (hek293), the AC50 entry is given as “Not Active”. As for `CC(C)(C)c1cccc(NC(=O)c2ccccc2NC(=O)C2CCCCC2)c1`, the %max in experiment [1] turned out to be 70%. Moreover, at Relaxin receptor 1 (read-out: AC50), the AC50 was 2.65 µM. With `COCCOc1ccccc1C(=O)Nc1cccc(C(F)(F)F)c1`, in experiment [1], the “%max” value was “inactive”. Further, the AC50 entry at Relaxin receptor 1 (hek293) is “Not Active”.

Regarding `O=C(Nc1cccc(Br)c1)c1ccccc1NC(=O)C1CCCCC1`, in experiment [1], the %max worked out at 91%. For the same compound, the AC50 at Relaxin receptor 1 (read-out: AC50) was 2.65 µM.

On to `O=C(Nc1cccc(-c2cccs2)c1)c1ccccc1NC(=O)C1CCCCC1`, for which the %max in experiment [1] was determined as 31%. In addition, the AC50 at Relaxin receptor 1 (read-out: AC50) is 471 µM. On to `CC(C)(C)OC(=O)N1CCN(CCOc2ccccc2C(=O)Nc2cccc(C(F)(F)F)c2)CC1`, for which, in experiment [1], the “%max” value was “inactive”. For the same compound, the AC50 result on Relaxin receptor 1 (hek293) is reported as “Not Active”. Regarding `COc1cccc(NC(=O)c2ccccc2NC(=O)C2CCCCC2)c1`, in experiment [1], the %max turned out to be 74%. Besides, the AC50 at Relaxin receptor 1 (read-out: AC50) was found to be 37.4 µM. As to `CCOc1ccccc1-c1nc2c(C(=O)Nc3cccc(S(=O)(=O)C(F)(F)F)c3)cccc2[nH]1`, in experiment [1], the “%max” value was “inactive”. In addition, the AC50 entry on Relaxin receptor 1 (hek293) is “Not Active”.

Regarding `CC(=O)c1ccc(C(=O)Nc2ccccc2C(=O)Nc2cccc(C(F)(F)F)c2)cc1`, the %max in experiment [1] turned out to be 71%. On Relaxin receptor 1 (read-out: AC50), the AC50 is 5.93 µM. For `C#Cc1cccc(NC(=O)c2ccccc2NC(=O)C2CCCCC2)c1` the same measures were 85% and 6.66 µM. For `Cc1ccc(C(=O)Nc2ccccc2C(=O)Nc2cccc(C(F)(F)F)c2)cc1` the same measures were 85% and 4.71 µM. Take `O=C(Nc1ccccc1C(=O)Nc1cccc(C(F)(F)F)c1)c1cccc(C(F)(F)F)c1`: the %max in experiment [1] stood at 95%. The AC50 at Relaxin receptor 1 (read-out: AC50) worked out at 2.97 µM. On to `CCOc1ccccc1C(=O)Nc1ncccc1C(=O)Nc1cccc(S(=O)(=O)C(F)(F)F)c1`, for which the %max in experiment [1] was determined as 98%. Moreover, the AC50 at Relaxin receptor 1 (read-out: AC50) stood at 1.67 µM.

Consider `C/C=C\c1cccc(NC(=O)c2ccccc2NC(=O)c2ccccc2OCC)c1`, for which the %max in experiment [1] was determined as 91%. Same read-out and setting: for `COc1ccccc1C(=O)Nc1cccc(C(=O)Nc2cccc(C(F)(F)F)c2)c1` the value was “inactive”; for `COc1ccccc1C(=O)N(C)c1ccccc1C(=O)Nc1cccc(C(F)(F)F)c1`, “inactive”. Same read-out and setting: next, `CCOc1ccccc1S(=O)(=O)Nc1ccccc1C(=O)Nc1cccc(S(=O)(=O)C(F)(F)F)c1`: “inactive”; `CCOc1ccccc1C(=O)Nc1ccccc1C(=O)Nc1cncc(I)c1`: 72%.

For the compound `O=C(Nc1cccc(-c2cccc(C(F)(F)F)c2)c1)c1ccccc1NC(=O)C1CCCCC1`, the “%max” value in experiment [1] is “inactive”.

A word on the AC50: it is the concentration giving half of the maximal activity seen.
